Assay results taken from publication PMC8536644, “Enigmatic mechanism of the N-vinylpyrrolidone hepatocarcinogenicity in the rat” (Archives of Toxicology, 2021).
“And” between values parts separate entries of the source, which are not always exact repeats. Equal entries are not always repeated.

Key:
rat liver cells [1] = test: Trypan Blue viability of the single cell suspension, liver; type: in vivo; conditions: Wistar, rat, in vivo, po, 200 mg/kg, 24 h
[2] = as above; type: in vivo, rat; conditions: Wistar, rat, in vivo, po, 200 mg/kg
[3] = Trypan Blue viability of the single cell suspension, lung; type: in vivo, rat; conditions: Wistar, rat, in vivo, po, 200 mg/kg
rat lung cells = test: Comet assay, conventional (no FPG), lung; conditions: no FPG; for Increase of the TI vs vehicle control / Hedgehogs/100 cells (mean ± SD) / TI (%) (mean ± SD) / TI (%), mean of medians from 2 slides: lung; for Increase of the TI vs vehicle control: p ≤ 0.01; for Hedgehogs/100 cells (mean ± SD) / TI (%) (mean ± SD) / TI (%), mean of medians from 2 slides: 200 mg/kg bw oral, once; for TI (%), mean of medians from 2 slides: individual animals
Description: (§1) Animals were anesthetized by 3.5% isoflurane (approximately 3 min, evaporator Dräger Vapor 19.3) and then killed by cervical dislocation. The liver was removed and its left lateral lobe used for the Comet assay. The remainder of the liver was washed in saline and then in two aliquots shock frozen in liquid nitrogen and stored at − 80 °C for later examinations. Subsequently the lung was removed from the dead animal. Its left lobe was used for the Comet assay and the remainder treated as described above for the liver. Thereafter the femora were removed for the preparation of the bone marrow.
(§2) The Comet assay was performed under alkaline conditions according to the principles described by Singh et al. ([1988]) and Tice et al. ([2000]).
(§3) Liver and lung cells were obtained essentially as described by Hartmann et al. ([2004]) and by the Japanese Center for the Validation of Alternative Methods (JaCVAM [2009]). Single cells were obtained within 1 h after killing of the animals in order to minimize DNA damage during the preparation.
(§4) The organ parts (see above) were washed in mincing buffer (50 mM EDTA in HBSS [without Ca^2+ and Mg^2+] pH 7.5: DMSO 9:1 (v/v), the latter added shortly before use, stored at 4 °C), cut into 1 to 2-mm pieces in ice-cold mincing buffer and transferred to a cell sieve with 70-µm pores. The viability of the cell suspension was evaluated by the Trypan Blue Assay (Strober [2001]).
(§5) 100 µL of the obtained cell suspension was mixed at 37 °C with 900 µL Low Melting Agarose (LMA) (0.7% agarose in phosphate-buffered saline [PBS] [Biochrom, Berlin, Germany] without Ca^2+ and Mg^2+). 100 µL of this mixture was transferred to a slide, which had been coated with Normal Melting Agarose (NMA) (0.6% agarose in PBS without Ca^2+ and Mg^2+). The slides were protected with a cover slip and the agarose was hardened at approximately 4 °C. The cover slips were then removed and the slides put over night at 4 °C into lysis buffer (2.5 M NaCl, 125 mM NaOH, 127 mM EDTA, 10 mM Tris/NaOH, pH 10; 1% Triton X-100 and 10% DMSO (v/v), the latter two added before use) in order to lyse the cell membrane, nuclear membrane and remove the histone.
(§6) The then following procedures were performed in a shaded room to minimize UV-mediated DNA damage during the procedures.
(§7) Remaining lysis buffer or FPG buffer was removed by immersing/washing the slides in PBS (without Ca^2+ and Mg^2+).
The slides were then placed into the electrophoresis chamber, which was cooled and protected from light. Slides were covered with electrophoresis buffer (0.3 M NaOH, 1 mM EDTA, pH > 13) carefully avoiding air bubbles. The DNA was allowed to unwind (20 min). Thereafter the electrophoresis was started (25 V, 300 mA, […], 30 min). The slides were then washed (2 times 5 min) in neutralization buffer (0.4 M Tris/HCl, pH 7.5), dehydrated and fixed in 100% ethanol (1 min), dried at room temperature overnight and stored at room temperature protected from dust.
Quantitative evaluation of the Comet assays was performed by fluorescence microscopy after DNA staining with ethidium bromide.

rat liver cells [4] = test: Comet assay in presence of FPG, liver; conditions: in presence of FPG, 200 mg/kg
Description: as §1, §2, §3, §4, §5, §6
Those slides which were destined to be treated with the DNA base excision repair enzyme FPG (Sigma Aldrich, Steinheim, Germany) were washed (3 times for 5 min) with FPG buffer (0.04 M HEPES, 0.5 mM EDTA, 0.1 M KCl, pH 8; add shortly before use bovine serum albumin [BSA] to a final concentration of 0.02%). Subsequently 50 µL FPG-enzyme-buffer (prepared shortly prior to use by 30-fold dilution of the following suspension in FPG buffer: 7 µL FPG-enzyme (14 U) and 70 µL glycerol in 623 µL FPG-Puffer, stored at − 80 °C) was pipetted on the slide which was covered with a cover slide and incubated for 30 min at 37 °C while being placed on a humid filter paper. After hardening of the agarose cover slips were removed.
as §7

[5] = female, Individual viability (%)
[6] = female, Viability (%) (mean ± SD)
[7] = male, Viability (%) (mean ± SD)

SMILES: CCOS(C)(=O)=O [EMS, ethyl methanesulfonate, reference compound]
- Individual viability (%) (rat liver cells [1]; female): 97%
- Individual viability (%) (rat liver cells [1]; male): 94%
- viability at 24 h [2, 5]: 99%
- viability at 24 h [2, 6]: 96 ± 2%
- viability at 24 h ([2]; male, Individual viability (%)): 91%
- viability at 24 h [2, 7]: 95 ± 3%
- viability at 24 h [3, 5]: 99%
- viability at 24 h [3, 6]: 99 ± 1%
- viability at 24 h ([3]; male, Individual viability (%)): 99%
- viability at 24 h [3, 7]: 99 ± 1%
- Hedgehogs per 100 cells, averaged for both genders (rat lung cells; lung cells, 200 mg/kg): 9 per 100 cells
- Increase of the TI vs vehicle control (rat lung cells; female, 200 mg/kg): 21 fold
- Hedgehogs/100 cells (mean ± SD) (rat lung cells; female): 9 ± 5 /100 cells
- TI (%) (mean ± SD) (rat lung cells; female): 16.7 ± 2.83%
- TI (%), mean of medians from 2 slides (rat lung cells; female, 200 mg/kg): 13.2% and 13.0% and 18.7% and 18.8% and 17.8%
- Increase of the TI vs vehicle control (rat lung cells; male, 200 mg/kg): 17 fold
- Hedgehogs/100 cells (mean ± SD) (rat lung cells; male): 9 ± 4 /100 cells
- TI (%) (mean ± SD) (rat lung cells; male): 19.3 ± 5.15%
- TI (%), mean of medians from 2 slides (rat lung cells; male, 200 mg/kg): 20.7% and 14.6% and 26.5% and 13.1% and 23.3% and 17.8%
- Comets seen in presence of FPG (rat liver cells [4]): only hedgehogs were seen
- TI in presence of FPG (image analysis) (rat liver cells [4]): marked increase
